Test results published in PubChem BioAssay AID1259411 (Chemical Carcinogenesis Research Information System (CCRIS), 2018).
Activity calls are given as the source filed them. The rule behind the calls is not given here.

Tested on: rodent carcinogenicity bioassays, tumor incidence
Assay: CCRIS carcinogenicity studies
Summary of the method: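 NCI-built, expert-reviewed records of carcinogenicity and related test outcomes (mutagenicity, tumor promotion/inhibition) compiled from published and report sources, historical span 1985-2011, not updated.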

Compound: OC[C@@H](O)[C@@H](O)CO
- carcinogen call (Species: DOG, Strain/Sex: BEAGLE/FEMALE, Route: ORAL, Dose: 0, 2, 5, 10% IN DIET FOR 53 WK (STUDY DURATION: 53 WK), Dose: 0, 2, 5, 10% IN DIET FOR 53 WK (STUDY DURATION: 53 WK)): inactive; negative
- carcinogen call (Species: DOG, Strain/Sex: BEAGLE/MALE, Route: ORAL, Dose: 0, 2, 5, 10% IN DIET FOR 53 WK (STUDY DURATION: 53 WK), Dose: 0, 2, 5, 10% IN DIET FOR 53 WK (STUDY DURATION: 53 WK)): inactive; negative
- carcinogen call (Species: RAT, Strain/Sex: WISTAR/FEMALE, Route: ORAL, Dose: 0, 2, 5, 10% IN DIET FOR 104 WK (STUDY DURATION: 104 WK), Dose: 0, 2, 5, 10% IN DIET FOR 104 WK (STUDY DURATION: 104 WK)): inactive; negative
- carcinogen call (Species: RAT, Strain/Sex: WISTAR/MALE, Route: ORAL, Dose: 0, 2, 5, 10% IN DIET FOR 104 WK (STUDY DURATION: 104 WK), Dose: 0, 2, 5, 10% IN DIET FOR 104 WK (STUDY DURATION: 104 WK)): inactive; negative

Compound: CC1CN1 (configuration not stated)
- carcinogen call (Species: RAT, Strain/Sex: STRAIN-CD/FEMALE, Route: GAVAGE, Dose: 10.5, 20.7 MG/KG (AVE DOSE) IN WATER 2/WK FOR 58 WK (LOW DOSE) OR 27 WK (HIGH DOSE), Tumor Site: Type of Lesion: INTESTINES: ADENOCARCINOMA, BRAIN (CEREBRUM): GLIOMA, EAR (DUCT): SQUAMOUS CELL CARCINOMA, MAMMARY GLAND: ADENOCARCINOMA, Tumor Site: Type of Lesion: INTESTINES: ADENOCARCINOMA, BRAIN (CEREBRUM): GLIOMA, EAR (DUCT): SQUAMOUS CELL CARCINOMA, MAMMARY GLAND: ADENOCARCINOMA): active; positive
- carcinogen call (Species: RAT, Strain/Sex: STRAIN-CD/MALE, Route: GAVAGE, Dose: 10.5, 20.7 MG/KG (AVE DOSE) IN WATER 2/WK FOR 58 WK (LOW DOSE) OR 27 WK (HIGH DOSE), Tumor Site: Type of Lesion: HEMATOPOIETIC SYSTEM (LEUKEMIA): GRANULOCYTIC LEUKEMIA, BRAIN (CEREBRUM): GLIOMA, EAR (DUCT): SQUAMOUS CELL CARCINOMA, I, Tumor Site: Type of Lesion: HEMATOPOIETIC SYSTEM (LEUKEMIA): GRANULOCYTIC LEUKEMIA, BRAIN (CEREBRUM): GLIOMA, EAR (DUCT): SQUAMOUS CELL CARCINOMA, I): active; positive

Compound: c1ccc2nc3ccc4ccccc4c3cc2c1
- carcinogen call (Species: RAT, Strain/Sex: OSBORNE-MENDEL/FEMALE, Route: LUNG IMPLANT, Dose: 0, 0.2, 1.0, 5.0 MG IN BEESWAX/TRICAPRYLIN (STUDY DURATION: LIFETIME), Dose: 0, 0.2, 1.0, 5.0 MG IN BEESWAX/TRICAPRYLIN (STUDY DURATION: LIFETIME)): inactive; negative

Compound: COC(=O)c1ccc(CNS(C)(=O)=O)cc1S(=O)(=O)NC(=O)Nc1nc(OC)cc(OC)n1
- carcinogen call (Species: Mouse, Strain/Sex: CD-1/Female (60/Group), Route: Oral, Dose: 0, 13.9, 129.8, 1356 mg/kg/day of 94.6-95.3% mesosulfuron-methyl in diet for 18 mo, study duration 18 mo, Dose: 0, 13.9, 129.8, 1356 mg/kg/day of 94.6-95.3% mesosulfuron-methyl in diet for 18 mo, study duration 18 mo): inactive; negative
- carcinogen call (Species: Mouse, Strain/Sex: CD-1/Male (60/Group), Route: Oral, Dose: 0, 10.6, 102.8, 1069 mg/kg/day of 94.6-95.3% mesosulfuron-methyl in diet for 18 mo, study duration 18 mo, Dose: 0, 10.6, 102.8, 1069 mg/kg/day of 94.6-95.3% mesosulfuron-methyl in diet for 18 mo, study duration 18 mo): inactive; negative
- carcinogen call (Species: Rat, Strain/Sex: Hoe:WISK(SPF71)/Female (50/Group), Route: Oral, Dose: 0, 9.39, 94.7, 952.3 mg/kg/day of 94.6% mesosulfuron-methyl in diet for 24 mo, study duration 24 mo, Dose: 0, 9.39, 94.7, 952.3 mg/kg/day of 94.6% mesosulfuron-methyl in diet for 24 mo, study duration 24 mo): inactive; negative
- carcinogen call (Species: Rat, Strain/Sex: Hoe:WISK(SPF71)/Male (50/Group), Route: Oral, Dose: 0, 7.46, 73.8, 764.0 mg/kg/day of 94.6% mesosulfuron-methyl in diet for 24 mo, study duration 24 mo, Dose: 0, 7.46, 73.8, 764.0 mg/kg/day of 94.6% mesosulfuron-methyl in diet for 24 mo, study duration 24 mo): inactive; negative

Compound: Oc1ccc(-c2cc(Cl)c(Cl)c(Cl)c2Cl)cc1
- carcinogen call (Species: MOUSE, Strain/Sex: BALB/CCRGL/FEMALE, Route: SUBCUTANEOUS, Dose: 40 UG DAILY FOR 5 D BEGINNING 16 HR AFTER BIRTH (STUDY DURATION: 20 MO), Tumor Site: Type of Lesion: MAMMARY GLAND: CARCINOMA (4/30), CERVICOVAGINAL TRACT: CARCINOMA (4/30)): active; positive
- carcinogen call (Species: MOUSE, Strain/Sex: BALB/CCRGL/FEMALE, Route: SUBCUTANEOUS, Dose: 400 UG DAILY FOR 5 D BEGINNING 16 HR AFTER BIRTH (STUDY DURATION: 20 MO), Tumor Site: Type of Lesion: CERVICOVAGINAL TRACT: CARCINOMA (5/24)): active; positive

Compound: CNN
- carcinogen call (Species: DOG, Strain/Sex: BEAGLE/FEMALE, Route: INHALATION, Dose: 0, 0.2, 2 PPM 6 HR/D 5 D/WK FOR 1 YR (STUDY DURATION: 6 YR), Dose: 0, 0.2, 2 PPM 6 HR/D 5 D/WK FOR 1 YR (STUDY DURATION: 6 YR)): inactive; negative
- carcinogen call (Species: DOG, Strain/Sex: BEAGLE/MALE, Route: INHALATION, Dose: 0, 0.2, 2 PPM 6 HR/D 5 D/WK FOR 1 YR (STUDY DURATION: 6 YR), Dose: 0, 0.2, 2 PPM 6 HR/D 5 D/WK FOR 1 YR (STUDY DURATION: 6 YR)): inactive; negative
- carcinogen call (Species: HAMSTER, Route: ORAL, Tumor Site: Type of Lesion: LIVER): active; positive
- carcinogen call (Species: HAMSTER, Strain/Sex: SYRIAN/MALE, Route: INHALATION, Dose: 0, 0.2, 2, 5 PPM 6 HR/D 5 D/WK FOR 1 YR (STUDY DURATION: 1 YR), Dose: 0, 0.2, 2, 5 PPM 6 HR/D 5 D/WK FOR 1 YR (STUDY DURATION: 1 YR), Tumor Site: Type of Lesion: NASAL CAVITY: ADENOMA): active; positive
- carcinogen call (Species: MOUSE, Route: ORAL, Tumor Site: Type of Lesion: LUNG): active; positive
- carcinogen call (Species: MOUSE, Strain/Sex: C57BL/FEMALE, Route: INHALATION, Dose: 0, 0.02, 0.2, 2, 5 PPM 6 HR/D 5 D/WK FOR 1 YR (STUDY DURATION: 2 YR), Dose: 0, 0.02, 0.2, 2, 5 PPM 6 HR/D 5 D/WK FOR 1 YR (STUDY DURATION: 2 YR), Tumor Site: Type of Lesion: LUNG: ADENOMA, LIVER: ADENOMA, CARCINOMA, HEMATOPOIETIC SYSTEM: HEMANGIOMA, Tumor Site: Type of Lesion: LUNG: ADENOMA, LIVER: ADENOMA, CARCINOMA, HEMATOPOIETIC SYSTEM: HEMANGIOMA): active; positive
- carcinogen call (Species: MOUSE, Strain/Sex: SWISS/FEMALE, Route: ORAL, Dose: 0.001% SOLUTION IN DRINKING WATER FOR LIFE (DAILY INTAKE: 0.078 MG) (STUDY DURATION: LIFETIME), Tumor Site: Type of Lesion: LUNG: ADENOMA, ADENOCARCINOMA, HEMATOPOIETIC SYSTEM: MALIGNANT LYMPHOMA, MAMMARY GLAND: ADENOCARCINOMA, Tumor Site: Type of Lesion: LUNG: ADENOMA, ADENOCARCINOMA, HEMATOPOIETIC SYSTEM: MALIGNANT LYMPHOMA, MAMMARY GLAND: ADENOCARCINOMA): active; positive
- carcinogen call (Species: MOUSE, Strain/Sex: SWISS/MALE, Route: ORAL, Dose: 0.001% SOLUTION IN DRINKING WATER FOR LIFE (DAILY INTAKE: 0.102 MG) (STUDY DURATION: LIFETIME), Tumor Site: Type of Lesion: LUNG: ADENOMA, ADENOCARCINOMA, HEMATOPOIETIC SYSTEM: MALIGNANT LYMPHOMA): active; positive
- carcinogen call (Species: RAT, Strain/Sex: F344/FEMALE, Route: INHALATION, Dose: 0, 0.02, 0.2, 2, 5 PPM 6 HR/D 5 D/WK FOR 1 YR (STUDY DURATION: 2 YR), Dose: 0, 0.02, 0.2, 2, 5 PPM 6 HR/D 5 D/WK FOR 1 YR (STUDY DURATION: 2 YR)): inactive; negative
- carcinogen call (Species: RAT, Strain/Sex: F344/MALE, Route: INHALATION, Dose: 0, 0.02, 0.2, 2, 5 PPM 6 HR/D 5 D/WK FOR 1 YR (STUDY DURATION: 2 YR), Dose: 0, 0.02, 0.2, 2, 5 PPM 6 HR/D 5 D/WK FOR 1 YR (STUDY DURATION: 2 YR)): inactive; negative

Compound: CC(Cl)CCCC(Cl)CCCC(Cl)CCCC(Cl)CCCC(Cl)CCCC(Cl)CCCl (configuration not stated)
- carcinogen call (Species: MOUSE, Strain/Sex: B6C3F1/FEMALE, Route: GAVAGE, Dose: 0, 2500, 5000 MG/KG IN CORN OIL 5 D/WK FOR 103 WK (STUDY DURATION: 103 WK), Dose: 0, 2500, 5000 MG/KG IN CORN OIL 5 D/WK FOR 103 WK (STUDY DURATION: 103 WK), Tumor Site: Type of Lesion: LIVER: HEPATOCELLULAR ADENOMA, HEPATOCELLULAR CARCINOMA): equivocal
- carcinogen call (Species: MOUSE, Strain/Sex: B6C3F1/MALE, Route: GAVAGE, Dose: 0, 2500, 5000 MG/KG IN CORN OIL 5 D/WK FOR 103 WK (STUDY DURATION: 103 WK), Dose: 0, 2500, 5000 MG/KG IN CORN OIL 5 D/WK FOR 103 WK (STUDY DURATION: 103 WK), Tumor Site: Type of Lesion: HEMATOPOIETIC SYSTEM: MALIGNANT LYMPHOMA): active; positive
- carcinogen call (Species: RAT, Strain/Sex: F344/FEMALE, Route: GAVAGE, Dose: 0, 100, 300, 900 MG/KG IN CORN OIL 5 D/WK FOR 103 WK (STUDY DURATION: 103 WK), Dose: 0, 100, 300, 900 MG/KG IN CORN OIL 5 D/WK FOR 103 WK (STUDY DURATION: 103 WK), Tumor Site: Type of Lesion: ADRENAL GLAND: MEDULLARY PHEOCHROMOCYTOMA): equivocal
- carcinogen call (Species: RAT, Strain/Sex: F344/MALE, Route: GAVAGE, Dose: 0, 1875, 3750 MG/KG IN CORN OIL 5 D/WK FOR 103 WK (STUDY DURATION: 103 WK), Dose: 0, 1875, 3750 MG/KG IN CORN OIL 5 D/WK FOR 103 WK (STUDY DURATION: 103 WK)): inactive; negative
